{"source": "patent US7759078B2", "about": "“Diagnosis and treatment of cancer” (priority 2003, dated 2010)", "key": {"[1]": {"system": "voltage gated Na+ channel in MAT-LyLu rat prostatic cancer cell line", "assay": "current recordings of VGSC functional expression in MAT-LyLu cells after 24 h incubation", "assay_type": "cell-based", "experimental": "FIG. 9. (A) Current recordings from the MAT-LyLu rat prostatic cancer cell line elicited by depolarising the membrane from a holding potential of −100 mV to 0 mV following 24 h incubation in 0% FBS, 100 ng/ml EGF and 1 μM AG1478. […] (B) Histograms showing mean peak Na^+ current density ± standard error following 24 h incubation in 0% FBS, 100 ng/ml EGF, 1 μM AG1478 and EGF receptor antibody (1 μg/ml). Statistical significance is indicated as **=p<0.01 and ***=p<0.001, respectively.\nEpidermal growth factor (EGF) upregulates VGSC functional expression. […] This effect is blocked by co-application of EGF receptor kinase inhibitor (AG1478; Calbiochem, San Diego, Calif., USA). Application of EGF receptor antibody (Oncogene, Cambridge, Mass., USA) also reduces the basal VGSC current implying that the phenomenon occurs endogenously."}, "[2]": {"system": "MAT-LyLu and PC-3 cells", "conditions": "cited from earlier work"}, "[3]": {"system": "MAT-LyLu cells", "conditions": "cited from earlier work"}, "[4]": {"system": "PN1 expression in PC12 cells", "conditions": "cited from earlier work"}}, "data": [{"molecule": "COc1cc2ncnc(Nc3cccc(Cl)c3)c2cc1OC", "note": "[AG1478]", "values": [{"measurement": "effect on EGF potentiation of functional VGSC expression", "setting": "[1]; co-application with EGF, 1 μM AG1478, 24 h", "result": "blocked"}]}, {"molecule": "NC1=N[C@H](O)[C@H]2[C@H]3O[C@]4(O)O[C@@H]([C@@H](O)[C@@]2(N1)[C@@H]4O)[C@]3(O)CO", "note": "[TTX, tetrodotoxin]", "values": [{"measurement": "cells' invasion in vitro", "setting": "[2]", "result": "significantly reduced"}, {"measurement": "reduction of the cells' invasive potential", "setting": "[2]", "result": "~30", "unit": "%"}, {"measurement": "effect on cell morphology", "setting": "[3]", "result": "retract their processes and become compact"}]}, {"molecule": "Epidermal growth factor [EGF]", "values": [{"measurement": "VGSC functional expression (peak Na+ current density)", "setting": "[1]; 24 h incubation, 100 ng/ml EGF", "result": "upregulates"}]}, {"molecule": "nerve growth factor [NGF]", "values": [{"measurement": "PN1 expression", "setting": "[4]", "result": "upregulates"}]}]}
